Read-outs that look alike come from different tables or passages of the source.
What was measured:
[1] = tested on: advanced or metastatic solid tumors, including lymphoma; test: Phase I/II study of azacitidine with nanoparticle albumin bound paclitaxel; type: in vivo, human; conditions: azacitidine sc days 1-5, then paclitaxel 100 mg/m^2 days 8, 15, 22 of 28-day cycle
Procedure: Patients with evaluable advanced or metastatic solid tumors, including lymphoma, adequate organ function, PS 0-2, and unlimited prior cytotoxic chemotherapies, including taxanes, were eligible. Cohorts of 3-6 patients were enrolled and treated.
Escalating doses of azacitidine (75-100 mg/m^2) were administered to patients subcutaneously on days 1-5, followed by a fixed dose of paclitaxel ([…]) on days 8, 15, and 22 of a 28-day cycle, for a total of 6 cycles. Serum and/or tissue samples, where appropriate, were collected for correlative studies.
Patients were initially permitted to have an unlimited number of prior chemotherapies. […] All affected patients had 4 or more prior cytotoxic regimens. […] Cohort 3 was treated at the next dose level (azacitidine 100 mg/m^2). […] Therefore, the maximum tolerated dose (MTD) of azacitidine in this regimen is 75 mg/m^2. […] To date, 16 patients have enrolled in the phase I part. Two patients were removed before completing cycle 1 because of disease progression. One patient was removed after cycle 4 for noncompliance.

NSCLC_16591 xenograft = test: Tumor xenograft growth in vivo, SPARC-negative PD NSCLC xenograft; set-up: species or system SCID mice; conditions: Abraxane 30 mg/kg, taxol 13.4 mg/kg (equitoxic)
Procedure: (§1) Experimental studies were carried out using 6- to 8-week-old CB.17 severe combined immunodeficiency (SCID)/SCID with an average body weight ˜25 g. H460 (5×10^6 cells) or PD NSCLC xenografts (mouse-to-mouse passage), which were cut into small fragments (2-3 mm in size), were implanted subcutaneously at the flank region. Tumor growth was monitored by periodic visual inspection at the site of implantation, and the dimensions of the xenografts were measured every 2 to 3 days. Tumor volume was calculated using the following formula: V=LD×(SD)^2/2, where V is the tumor volume, LD is the longest tumor diameter, and SD is the shortest tumor diameter.
(§2) To establish a maximally tolerated dose to be used in experiments involving pretreatment with decitabine, groups of mice implanted with H460 cell lines were tested at four dose levels of decitabine, i.e., 0.75, 1.5, 2, and 4 mg/kg, administered intraperitoneally as a single dose and monitored for viability (weight loss and death). […]
(§3) To describe the observed variability in the in vivo data and test for differences between groups, a multivariate linear model was fit to each dependent variable (tumor volume). […] Difference was considered statistically significant when the calculated p value was less than 0.05.

NSCLC_16465 xenograft = test: as above; set-up: species or system SCID mice; conditions: taxol 13.4 mg/kg
Procedure: as §1, §2, §3

NSCLC_15946 xenograft = test: Tumor xenograft growth in vivo, SPARC-intermediate PD NSCLC xenograft; set-up: species or system SCID mice; conditions: Abraxane 30 mg/kg, taxol 13.4 mg/kg (equitoxic)
Procedure: as §1, §2, §3

NSCLC_16372 xenograft = test: Tumor xenograft growth in vivo, SPARC-positive PD NSCLC xenograft; set-up: species or system SCID mice; conditions: Abraxane 30 mg/kg, taxol 13.4 mg/kg (equitoxic)
Procedure: as §1, §2, §3

SPARC [2] = test: SPARC promoter methylation (MSP) and SPARC expression (RT-PCR, Western blot) in NSCLC cell lines in vitro; type: cell-based, human; conditions: 3 days in vitro
Procedure: Total RNA was extracted from the samples with Trizol reagent (Invitrogen; Carlsbad, Calif.), and first-strand complementary DNA was generated using SuperScript III First-Strand Synthesis System (Invitrogen). The forward polymerase chain reaction (PCR) amplification primer of SPARC was 5′-[…]-3′ (Ex8-S, SEQ ID NO:1), and the reverse primer was 5-[…]-3′ (Ex9-AS, SEQ ID NO:2). Semiquantitative PCR was carried out for 4 minutes at 95° C. for initial denaturation, followed by 33 cycles of 94° C. for 25 seconds, 56° C. for 25 seconds, and 68° C. for 40 seconds. Glyceraldehyde-3-phosphate dehydrogenase (GAPDH) was used as endogenous control. Quantitative real-time (RT) PCR was done with SYBR GreenER qPCR superMix for ABI PRISM (Invitrogen) using ABI 7300 RT PCR system (Invitrogen), and GAPDH was used as a housekeeping gene for purpose of normalization.
The objective of this study was to determine if demethylation of the promoter region of the SPARC gene results in reexpression of the SPARC gene in cancer cells. DNA methylation in gene promoter regions is a mechanism to silence gene expression. The loss of SPARC expression in a large proportion of NSCLC specimens may be due to the methylation in the promoter region of SPARC gene was investigated. Representative samples of NSCLC cell lines or PD xenografts were treated with decitabine (5 μM) in vitro for three days and promoter methylation was analyzed.
Genomic DNA was obtained from cell lines and primary tumors by using DNeasy Blood and Tissue Kit (Qiagen; Valencia, Calif.) according to the manufacturer's handbook. The DNA methylation pattern in the CpG island of SPARC was determined using the method of methylation-specific PCR (MSP) and with the EZ DNA Methylation Kit (Zymo research, Irvine, Calif.). Primers for the methylated reaction were Sparc-unmsp-F: 5′-[…]-3′ (sense, SEQ ID NO:3), Sparcunmsp-R: 5′-[…]-3′ (antisense, SEQ ID NO:4), sparc-msp-F: 5′-[…]-3′ (sense, SEQ ID NO:5), and sparc-msp-R: 5′-[…]-3′ (antisense, SEQ ID NO:6). PCR amplification was carried out with bisulfite-treated DNA as a template using specific primer sequences for the methylated and unmethylated status of the gene. Water blanks were included with each assay. PCR amplification was carried out for 12 minutes at 94° C. for initial denaturation, followed by 40 cycles of 94° C. for 30 seconds, 58° C. for 25 seconds, and 68° C. for 45 seconds. Results were confirmed by repeating the bisulfate treatment and MSP for all samples. PCR products were visualized on 1.5% agarose gels.
Western blot analysis was carried out using standard methods. Polyclonal antihuman SPARC antibody was purchased from R&D System (Minneapolis, Minn.). […] The levels of β-actin (Sigma) were measured as control for equal loading. […]

[3] = tested on: mice implanted with H460 cell lines; test: Tolerable dose of decitabine, viability (weight loss and death); type: in vivo, SCID mice
Procedure: To establish a maximally tolerated dose to be used in experiments involving pretreatment with decitabine, groups of mice implanted with H460 cell lines were tested at four dose levels of decitabine, i.e., 0.75, 1.5, 2, and 4 mg/kg, administered intraperitoneally as a single dose and monitored for viability (weight loss and death). Two mice from each group were killed 48 hours after completing decitabine treatment alone and tumor xenografts harvested to affirm SPARC-expression status. For combination drug treatment, Abraxane® was administered by tail vein injection at 30 mg/kg/d for 5 consecutive days. Taxol and decitabine were used at 13.4 mg/kg/d and 1.5 mg/kg/d, respectively. […] At the end of drug treatment, the mice were killed. Xenografts were harvested and assayed to determine SPARC status.
The study evaluates tumor SPARC expression upregulation on treatment with decitabine in vitro and in vivo. To establish a tolerable dose to be used in experiments in vivo, groups of mice implanted with H460 cell lines were tested at four dose levels of decitabine, i.e., 0.75, 1.5, 2, and 4 mg/kg, respectively. This is based on prior publication showing that decitabine administered twice daily intraperitoneally for 5 days was toxic at 10 mg/kg/dose, and 2 mg/kg dose was associated with mild toxicity (Guo, Z S et al Cancer Res 2006 22:1105-1113). […] Nevertheless, decitabine at 2 and 4 mg/kg was toxic with 6/8 (75%) mice dead between 8 and 12 days after only one decitabine dose (without Abraxane® treatment). Decitabine dose at 1.5 mg/kg was subsequently used in the combination experiments.

[4] = cited from earlier work
SPARC [5] = test: SPARC expression in NSCLC xenografts in vivo; set-up: species or system SCID mice
Procedure: Western blot analysis was carried out using standard methods. Polyclonal antihuman SPARC antibody was purchased from R&D System (Minneapolis, Minn.). NSCLC cell lines A549, H460, and H157 were treated with 5 μM decitabine for 3 days in vitro and then harvested for RT-PCR and Western blot analysis. PD NSCLC xenografts and H460 xenografts treated with or without decitabine at 1.5 mg/kg/d. Xenografts were harvested for SPARC expression analysis. GAPDH were used as the endogenous control. Xenograft lysates were prepared and subjected to immunoblot analysis using 50 μg of cellular protein as described previously (Yu, C. et al. Blood 2003 102:3765-3774). The levels of β-actin (Sigma) were measured as control for equal loading. Immunoblots were developed with enhanced chemiluminescence (Amersham Bioscience, Golden Valley, Minn.).
as §2, with “death). Two mice from each group were killed 48 hours after completing decitabine treatment alone and tumor xenografts harvested to affirm SPARC-expression status.” for “death).”

[6] = decitabine at 2 and 4 mg/kg ip, without Abraxane treatment

Nc1ncn([C@@H]2O[C@H](CO)[C@@H](O)[C@H]2O)c(=O)n1 [azacitidine, 5-azacytidine]
maximum tolerated dose (MTD) of azacitidine in this regimen [1]: 75 mg/m^2

CC(=O)O[C@H]1C(=O)[C@@]2(C)[C@H]([C@H](OC(=O)c3ccccc3)[C@]3(O)C[C@H](OC(=O)[C@H](O)[C@@H](NC(=O)c4ccccc4)c4ccccc4)C(C)=C1C3(C)C)[C@]1(OC(C)=O)CO[C@@H]1C[C@@H]2O [taxol]
effect on tumor growth compared with vehicle control (NSCLC_16591 xenograft): Neither administration of taxol nor administration of Abraxane® showed any effect on tumor growth | tumor growth compared with vehicle control (NSCLC_16465 xenograft): no difference compared with vehicle control | tumor growth compared with vehicle control (NSCLC_15946 xenograft): significantly inhibited | xenograft growth compared with vehicle control (NSCLC_16372 xenograft): suppressed

Nc1ncn([C@H]2C[C@H](O)[C@@H](CO)O2)c(=O)n1 [decitabine, 5-aza-2′-deoxycytidine]
SPARC expression in NSCLC cell lines (SPARC [2]; A549, H460 and H157, decitabine 5 μM): up-regulated | SPARC expression (SPARC [2]; H460 cells, decitabine 5 μM): up-regulated | SPARC protein (Western blot) (SPARC [2]; H460 cells, decitabine 5 μM): upregulation | unmethylated promoter of SPARC (methylation-specific PCR) (SPARC [2]; H460 cells, decitabine 5 μM): increase | toxicity ([3]; decitabine at 2 and 4 mg/kg ip single dose): toxic | mice dead between 8 and 12 days after only one decitabine dose [3, 6]: 75% | mice dead between 8 and 12 days after only one decitabine dose (number/total) [3, 6]: 6/8 | toxicity ([4]; 2 mg/kg dose twice daily intraperitoneally for 5 days): mild toxicity | toxicity ([4]; 10 mg/kg/dose twice daily intraperitoneally for 5 days): toxic | SPARC expression in xenografts (SPARC [5]; NSCLC_16325, NSCLC_16384 and H460 xenografts, decitabine 1.5 mg/kg): up-regulated | reexpression of SPARC in H460 xenografts (SPARC [5]; decitabine 0.75, 1.5, 2 and 4 mg/kg ip): dose-dependent reexpression

From patent publication US20190167629A1, “COMBINATION THERAPY METHODS FOR TREATING PROLIFERATIVE DISEASES” (Abraxis BioScience, LLC, priority 2010, published 2019)
